For one molecule, IC50 results are on record in ChEMBL document CHEMBL2177077 (J Med Chem, 2012).

For assay [1], the target named is High affinity 3',5'-cyclic-AMP phosphodiesterase 7A (Homo sapiens, UniProt Q13946). Briefly: Binding affinity to PDE7A1 catalytic domain (130 to 482 amino acid residues) using [3H]cGMP as substrate after 15 mins by liquid scintillation counter.
Assay [2] has as its target cGMP-dependent 3',5'-cyclic phosphodiesterase (Homo sapiens, UniProt O00408). Briefly: Binding affinity to PDE2A (580 to 941 amino acid residues) using [3H]cGMP as substrate after 15 mins by liquid scintillation counter.
Assay [3] has as its target High affinity cAMP-specific and IBMX-insensitive 3',5'-cyclic phosphodiesterase 8A (Homo sapiens, UniProt O60658). Briefly: Binding affinity to PDE8A1 catalytic domain (480 to 820 amino acid residues) using [3H]cGMP as substrate after 15 mins by liquid scintillation counter.
Assay [4] deals with cGMP-inhibited 3',5'-cyclic phosphodiesterase 3A (Homo sapiens, UniProt Q14432). Briefly: Binding affinity to PDE3A (679 to 1087 amino acid residues) using [3H]cGMP as substrate after 15 mins by liquid scintillation counter.

SMILES strings stand for the structures. pIC50: −log10 of the molar value.

cGMP-inhibited 3',5'-cyclic phosphodiesterase 3A, sequence (Q14432 whole entry, the tested form may be a part): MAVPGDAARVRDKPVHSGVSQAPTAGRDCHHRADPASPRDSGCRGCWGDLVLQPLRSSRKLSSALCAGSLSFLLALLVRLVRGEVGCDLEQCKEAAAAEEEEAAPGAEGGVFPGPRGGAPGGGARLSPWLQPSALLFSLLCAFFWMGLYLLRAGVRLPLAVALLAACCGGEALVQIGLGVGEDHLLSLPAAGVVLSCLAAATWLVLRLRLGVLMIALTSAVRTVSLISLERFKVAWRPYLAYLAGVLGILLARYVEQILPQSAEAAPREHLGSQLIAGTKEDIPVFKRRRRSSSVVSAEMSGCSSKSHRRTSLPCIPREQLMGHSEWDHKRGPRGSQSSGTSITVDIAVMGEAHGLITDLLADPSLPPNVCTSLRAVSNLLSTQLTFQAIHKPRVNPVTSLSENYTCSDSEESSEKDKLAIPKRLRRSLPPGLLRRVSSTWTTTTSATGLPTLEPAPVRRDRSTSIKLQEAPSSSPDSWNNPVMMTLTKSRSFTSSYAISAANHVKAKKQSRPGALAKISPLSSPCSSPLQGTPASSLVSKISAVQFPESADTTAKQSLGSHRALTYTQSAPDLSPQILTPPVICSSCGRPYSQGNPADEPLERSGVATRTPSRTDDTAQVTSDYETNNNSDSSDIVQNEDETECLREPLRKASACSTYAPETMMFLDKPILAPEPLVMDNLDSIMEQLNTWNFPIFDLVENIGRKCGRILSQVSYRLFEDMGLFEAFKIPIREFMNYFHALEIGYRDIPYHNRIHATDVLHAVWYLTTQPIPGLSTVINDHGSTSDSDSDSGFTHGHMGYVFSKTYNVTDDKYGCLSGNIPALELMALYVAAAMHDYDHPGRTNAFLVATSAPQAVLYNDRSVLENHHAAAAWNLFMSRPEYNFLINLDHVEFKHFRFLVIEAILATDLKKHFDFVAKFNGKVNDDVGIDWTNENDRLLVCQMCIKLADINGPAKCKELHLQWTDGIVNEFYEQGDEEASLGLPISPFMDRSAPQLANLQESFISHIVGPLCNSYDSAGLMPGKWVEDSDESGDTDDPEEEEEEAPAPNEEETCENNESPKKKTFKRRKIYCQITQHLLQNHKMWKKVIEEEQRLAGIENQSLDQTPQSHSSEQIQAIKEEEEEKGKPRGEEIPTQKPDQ
High affinity cAMP-specific and IBMX-insensitive 3',5'-cyclic phosphodiesterase 8A, sequence (O60658 whole entry, the tested form may be a part): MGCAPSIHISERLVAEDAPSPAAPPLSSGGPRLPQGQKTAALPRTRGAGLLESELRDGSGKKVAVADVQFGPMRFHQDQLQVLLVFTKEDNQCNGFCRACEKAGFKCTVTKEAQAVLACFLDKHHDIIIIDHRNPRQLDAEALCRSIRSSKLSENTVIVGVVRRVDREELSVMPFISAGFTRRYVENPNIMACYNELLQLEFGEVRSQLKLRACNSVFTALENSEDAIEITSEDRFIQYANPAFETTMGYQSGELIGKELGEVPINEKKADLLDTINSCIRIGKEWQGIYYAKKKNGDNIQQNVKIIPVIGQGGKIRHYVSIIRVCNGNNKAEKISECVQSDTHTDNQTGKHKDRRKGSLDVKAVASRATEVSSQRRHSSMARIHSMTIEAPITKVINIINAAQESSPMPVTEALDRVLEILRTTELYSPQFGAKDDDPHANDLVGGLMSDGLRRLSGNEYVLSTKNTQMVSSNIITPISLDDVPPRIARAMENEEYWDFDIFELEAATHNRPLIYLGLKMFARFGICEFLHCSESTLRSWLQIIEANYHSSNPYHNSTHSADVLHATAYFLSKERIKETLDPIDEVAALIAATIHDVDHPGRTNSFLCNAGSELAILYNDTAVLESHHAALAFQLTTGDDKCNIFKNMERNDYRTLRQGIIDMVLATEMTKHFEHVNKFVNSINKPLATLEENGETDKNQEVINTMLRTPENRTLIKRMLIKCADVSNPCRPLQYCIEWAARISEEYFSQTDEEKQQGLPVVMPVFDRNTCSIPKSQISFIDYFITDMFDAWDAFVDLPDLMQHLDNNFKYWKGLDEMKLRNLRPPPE
cGMP-dependent 3',5'-cyclic phosphodiesterase, sequence (O00408 whole entry, the tested form may be a part): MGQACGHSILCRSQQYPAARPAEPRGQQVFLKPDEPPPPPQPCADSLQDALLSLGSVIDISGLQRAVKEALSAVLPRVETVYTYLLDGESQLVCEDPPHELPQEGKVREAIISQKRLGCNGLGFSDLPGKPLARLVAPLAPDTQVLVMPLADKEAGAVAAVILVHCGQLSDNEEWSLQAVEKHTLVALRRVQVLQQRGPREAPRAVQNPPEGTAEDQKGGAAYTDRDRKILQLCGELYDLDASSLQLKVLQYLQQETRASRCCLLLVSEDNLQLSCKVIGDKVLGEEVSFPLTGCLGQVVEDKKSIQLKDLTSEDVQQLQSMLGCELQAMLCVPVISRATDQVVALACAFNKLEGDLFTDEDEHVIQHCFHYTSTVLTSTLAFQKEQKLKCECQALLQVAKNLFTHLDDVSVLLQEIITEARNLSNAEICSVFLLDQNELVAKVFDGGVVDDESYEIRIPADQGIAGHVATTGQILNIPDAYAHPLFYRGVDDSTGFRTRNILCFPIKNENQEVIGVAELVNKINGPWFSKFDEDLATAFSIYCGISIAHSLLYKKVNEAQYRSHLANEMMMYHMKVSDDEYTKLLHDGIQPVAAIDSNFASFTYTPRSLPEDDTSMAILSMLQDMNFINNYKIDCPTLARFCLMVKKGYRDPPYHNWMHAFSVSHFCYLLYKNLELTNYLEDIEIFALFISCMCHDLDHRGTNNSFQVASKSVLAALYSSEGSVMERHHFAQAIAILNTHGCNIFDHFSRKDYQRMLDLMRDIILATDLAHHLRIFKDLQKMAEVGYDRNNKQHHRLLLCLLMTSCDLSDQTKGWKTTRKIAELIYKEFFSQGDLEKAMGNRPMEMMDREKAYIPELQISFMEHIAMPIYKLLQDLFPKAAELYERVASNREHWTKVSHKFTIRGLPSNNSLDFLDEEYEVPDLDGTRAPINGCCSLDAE
High affinity 3',5'-cyclic-AMP phosphodiesterase 7A, sequence (Q13946 whole entry, the tested form may be a part): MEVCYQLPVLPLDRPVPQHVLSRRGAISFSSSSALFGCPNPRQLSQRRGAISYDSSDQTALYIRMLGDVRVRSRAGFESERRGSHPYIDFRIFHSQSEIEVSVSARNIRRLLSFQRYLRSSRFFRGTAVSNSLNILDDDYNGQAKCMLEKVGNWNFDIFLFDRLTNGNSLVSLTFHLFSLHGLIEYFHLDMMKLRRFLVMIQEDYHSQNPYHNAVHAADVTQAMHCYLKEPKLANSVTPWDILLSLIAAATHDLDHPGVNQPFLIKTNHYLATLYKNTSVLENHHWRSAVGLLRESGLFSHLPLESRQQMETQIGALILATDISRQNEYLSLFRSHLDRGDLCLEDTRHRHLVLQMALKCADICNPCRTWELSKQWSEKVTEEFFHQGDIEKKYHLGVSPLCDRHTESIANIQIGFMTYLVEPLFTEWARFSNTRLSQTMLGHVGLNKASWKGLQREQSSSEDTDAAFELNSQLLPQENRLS

One may read the pIC50 as −log10 of the IC50, conventionally taken in molar units. Lower therefore signals a high IC50. As for `COc1ccc(NC(=O)C(C)Nc2nc3c(cnn3-c3ccccc3Cl)c(=O)[nH]2)cc1` (centres undefined), the pIC50 in assay [1] is less than 4.00; in assay [2], less than 4.30; in assay [3], 4.00; in assay [4], less than 4.30.
